Experimental data: ChEMBL document CHEMBL1201862, “PubChem BioAssay data set” (2004)
Active and inactive are the calls of the source.

How the values were obtained:
[1] = molecular target: Mitogen-activated protein kinase 10 (Homo sapiens, UniProt P53779); experiment: Dose response biochemical screening assay for inhibitors of c-Jun N-Terminal Kinase 3 (JNK3). [Related pubchem assays: 746 ]
[2] = molecular target: T1, Cyclin-dependent kinase 5/CDK5 activator 1 (Homo sapiens, UniProt Q00535); experiment: CDK5/p35 kinase inhibitors, dose response, biochemical, cherry-picked samples, set 2 (AID 504545)
T1 sequence (Q00535 whole entry): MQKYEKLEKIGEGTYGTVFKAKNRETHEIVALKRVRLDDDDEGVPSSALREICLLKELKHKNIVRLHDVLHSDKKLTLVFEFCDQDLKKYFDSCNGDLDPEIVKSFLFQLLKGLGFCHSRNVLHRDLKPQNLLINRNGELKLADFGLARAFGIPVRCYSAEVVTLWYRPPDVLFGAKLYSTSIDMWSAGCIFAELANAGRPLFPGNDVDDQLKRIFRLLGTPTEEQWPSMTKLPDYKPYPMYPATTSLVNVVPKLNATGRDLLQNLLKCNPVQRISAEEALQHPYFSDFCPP
T1 sequence (Q15078 whole entry, further chain): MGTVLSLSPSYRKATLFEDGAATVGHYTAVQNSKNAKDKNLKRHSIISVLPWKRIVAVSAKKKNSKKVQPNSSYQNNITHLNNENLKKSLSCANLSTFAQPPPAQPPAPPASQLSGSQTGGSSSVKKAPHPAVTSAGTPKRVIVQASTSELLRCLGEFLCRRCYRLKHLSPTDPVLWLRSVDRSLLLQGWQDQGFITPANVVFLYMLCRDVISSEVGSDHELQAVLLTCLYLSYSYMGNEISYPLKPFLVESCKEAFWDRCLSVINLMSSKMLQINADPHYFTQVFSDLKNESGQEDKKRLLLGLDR

[3] = molecular target: Glycogen synthase kinase-3 alpha (Homo sapiens, UniProt P49840); experiment: Inhibition of Human GSK-3 alpha Activity Measured in Biochemical System Using Microfluidics - 2063-06_Inhibitor_Dose_DryPowder_Activity_Set2. [Related pubchem assays (depositor defined):AID2709]
Chain of Glycogen synthase kinase-3 alpha (P49840 whole entry): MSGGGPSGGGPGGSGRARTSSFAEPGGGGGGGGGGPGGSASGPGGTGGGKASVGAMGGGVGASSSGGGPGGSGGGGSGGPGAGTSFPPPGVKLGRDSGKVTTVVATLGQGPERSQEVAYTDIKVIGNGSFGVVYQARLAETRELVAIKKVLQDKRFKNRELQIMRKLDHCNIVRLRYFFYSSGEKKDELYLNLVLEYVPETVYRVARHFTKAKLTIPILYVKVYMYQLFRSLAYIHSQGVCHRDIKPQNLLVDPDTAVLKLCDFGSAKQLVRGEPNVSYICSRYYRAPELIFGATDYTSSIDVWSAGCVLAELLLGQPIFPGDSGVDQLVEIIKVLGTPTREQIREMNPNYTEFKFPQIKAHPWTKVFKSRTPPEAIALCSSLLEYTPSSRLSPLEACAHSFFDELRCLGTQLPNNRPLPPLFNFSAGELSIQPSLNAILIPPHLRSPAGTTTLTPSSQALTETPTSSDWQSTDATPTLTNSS

[4] = molecular target: Glycogen synthase kinase-3 beta (Homo sapiens, UniProt P49841); experiment: Inhibition of Human GSK-3 beta Activity Measured in Biochemical System Using Microfluidics - 2063-05_Inhibitor_Dose_DryPowder_Activity_Set2. [Related pubchem assays (depositor defined):AID2709]
Chain of Glycogen synthase kinase-3 beta (P49841 whole entry): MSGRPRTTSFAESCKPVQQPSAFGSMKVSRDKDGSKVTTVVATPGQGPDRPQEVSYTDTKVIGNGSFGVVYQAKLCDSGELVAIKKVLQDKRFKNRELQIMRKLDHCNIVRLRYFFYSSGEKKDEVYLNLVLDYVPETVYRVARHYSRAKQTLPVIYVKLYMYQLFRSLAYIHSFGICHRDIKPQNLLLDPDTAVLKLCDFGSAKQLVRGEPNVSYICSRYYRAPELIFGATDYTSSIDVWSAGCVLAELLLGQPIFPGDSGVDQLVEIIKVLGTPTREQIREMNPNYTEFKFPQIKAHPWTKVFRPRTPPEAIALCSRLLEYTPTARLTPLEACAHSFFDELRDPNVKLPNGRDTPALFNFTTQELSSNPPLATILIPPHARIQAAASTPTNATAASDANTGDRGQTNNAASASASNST

[5] = molecular target: T1, Cyclin-dependent kinase 5/CDK5 activator 1; experiment: CDK5-p25 kinase inhibitors, specificity check, dose response, selectivity assay for GSK-3 alpha inhibitor project, biochemical, microfluidic mobility shift, dry powder (AID 588430)
[6] = molecular target: Photoreceptor-specific nuclear receptor (Homo sapiens, UniProt Q9Y5X4); assay type: functional, cell-based;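 also: CHO-S cells with Gal4-NCOR and VP16-NR2E3 two-hybrid luciferase reporter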
Chain of Photoreceptor-specific nuclear receptor (Q9Y5X4 whole entry, the tested form may be a part): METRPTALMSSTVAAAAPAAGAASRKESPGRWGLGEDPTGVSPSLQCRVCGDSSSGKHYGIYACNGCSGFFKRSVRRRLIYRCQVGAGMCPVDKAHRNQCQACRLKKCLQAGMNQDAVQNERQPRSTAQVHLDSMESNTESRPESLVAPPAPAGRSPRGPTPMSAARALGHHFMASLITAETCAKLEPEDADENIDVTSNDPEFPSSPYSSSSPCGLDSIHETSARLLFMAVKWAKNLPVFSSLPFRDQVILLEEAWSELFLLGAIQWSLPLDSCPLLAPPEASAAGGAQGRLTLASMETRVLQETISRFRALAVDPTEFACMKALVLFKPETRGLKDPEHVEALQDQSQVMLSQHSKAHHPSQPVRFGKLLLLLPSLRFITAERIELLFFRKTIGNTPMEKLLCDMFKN

[7] = molecular target: T2, Sentrin-specific protease 8 (Homo sapiens, UniProt Q96LD8); experiment: SENP8 protease inhibitors, SAR follow-up, biochemical, luminescence (AID 504501); assay type: functional
T2 sequence (Q96LD8 whole entry): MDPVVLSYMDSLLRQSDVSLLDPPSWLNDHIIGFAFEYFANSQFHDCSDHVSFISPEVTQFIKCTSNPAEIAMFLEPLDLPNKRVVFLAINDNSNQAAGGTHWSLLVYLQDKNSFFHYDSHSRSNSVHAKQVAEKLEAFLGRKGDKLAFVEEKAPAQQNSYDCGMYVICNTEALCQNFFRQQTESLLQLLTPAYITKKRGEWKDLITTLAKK

Caspase-3 = molecular target: T3, Caspase-3 (Homo sapiens, UniProt P42574); experiment: SAR Analysis of small molecule inhibitors of Sentrin-specific proteases (SENPs) using a Caspase-3 Selectivity assay. [Related pubchem assays (depositor defined):AID2540, AID2599, AID434973, AID489001]; assay type: functional
T3 sequence (P42574 whole entry): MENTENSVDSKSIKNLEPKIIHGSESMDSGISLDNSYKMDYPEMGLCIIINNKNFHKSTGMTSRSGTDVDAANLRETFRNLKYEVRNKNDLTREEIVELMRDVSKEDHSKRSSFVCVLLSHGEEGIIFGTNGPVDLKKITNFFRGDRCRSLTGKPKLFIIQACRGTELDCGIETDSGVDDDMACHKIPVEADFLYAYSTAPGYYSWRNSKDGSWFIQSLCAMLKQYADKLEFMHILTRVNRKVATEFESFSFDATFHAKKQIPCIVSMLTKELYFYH

[8] = molecular target: T4, Sentrin-specific protease 6 (Homo sapiens, UniProt Q9GZR1); experiment: SAR Analysis of small molecule inhibitors of Sentrin-specific protease 6 (SENP6) using a Luminescent assay. [Related pubchem assays (depositor defined):AID2582, AID2599]; assay type: functional
T4 sequence (Q9GZR1 whole entry): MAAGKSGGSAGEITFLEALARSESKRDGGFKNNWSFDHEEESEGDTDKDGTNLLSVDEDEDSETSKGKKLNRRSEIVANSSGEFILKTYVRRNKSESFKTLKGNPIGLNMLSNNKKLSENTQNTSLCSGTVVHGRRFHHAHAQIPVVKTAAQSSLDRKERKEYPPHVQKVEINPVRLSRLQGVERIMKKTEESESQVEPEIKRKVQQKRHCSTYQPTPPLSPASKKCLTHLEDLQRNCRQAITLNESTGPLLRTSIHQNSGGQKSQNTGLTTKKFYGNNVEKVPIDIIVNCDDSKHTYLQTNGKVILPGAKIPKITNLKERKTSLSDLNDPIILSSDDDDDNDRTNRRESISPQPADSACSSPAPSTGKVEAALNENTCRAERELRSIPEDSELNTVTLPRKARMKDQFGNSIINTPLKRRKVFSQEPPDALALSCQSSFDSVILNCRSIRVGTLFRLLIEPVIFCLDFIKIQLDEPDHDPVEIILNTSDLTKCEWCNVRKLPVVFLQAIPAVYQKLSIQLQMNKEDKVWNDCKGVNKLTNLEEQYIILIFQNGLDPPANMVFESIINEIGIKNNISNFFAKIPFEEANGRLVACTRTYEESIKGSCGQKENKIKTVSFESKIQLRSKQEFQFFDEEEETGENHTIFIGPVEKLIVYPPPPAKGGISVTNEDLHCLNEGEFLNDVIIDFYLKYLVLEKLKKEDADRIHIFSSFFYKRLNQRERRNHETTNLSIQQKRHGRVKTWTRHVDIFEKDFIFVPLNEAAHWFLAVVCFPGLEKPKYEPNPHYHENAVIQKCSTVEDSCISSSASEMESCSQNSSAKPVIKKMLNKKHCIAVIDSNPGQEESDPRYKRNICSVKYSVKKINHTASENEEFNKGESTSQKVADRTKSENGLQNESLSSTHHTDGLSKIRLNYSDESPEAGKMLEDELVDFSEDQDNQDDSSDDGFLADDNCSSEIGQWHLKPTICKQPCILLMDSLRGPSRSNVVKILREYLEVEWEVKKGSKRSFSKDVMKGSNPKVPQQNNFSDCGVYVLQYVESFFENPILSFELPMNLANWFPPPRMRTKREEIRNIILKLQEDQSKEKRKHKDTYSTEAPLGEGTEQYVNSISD

[9] = molecular target: T5, Sentrin-specific protease 7 (Homo sapiens, UniProt Q9BQF6); experiment: SENP7 protease inhibitors, SAR follow-up, biochemical, luminescence (AID 504497); assay type: functional
T5 sequence (Q9BQF6 whole entry): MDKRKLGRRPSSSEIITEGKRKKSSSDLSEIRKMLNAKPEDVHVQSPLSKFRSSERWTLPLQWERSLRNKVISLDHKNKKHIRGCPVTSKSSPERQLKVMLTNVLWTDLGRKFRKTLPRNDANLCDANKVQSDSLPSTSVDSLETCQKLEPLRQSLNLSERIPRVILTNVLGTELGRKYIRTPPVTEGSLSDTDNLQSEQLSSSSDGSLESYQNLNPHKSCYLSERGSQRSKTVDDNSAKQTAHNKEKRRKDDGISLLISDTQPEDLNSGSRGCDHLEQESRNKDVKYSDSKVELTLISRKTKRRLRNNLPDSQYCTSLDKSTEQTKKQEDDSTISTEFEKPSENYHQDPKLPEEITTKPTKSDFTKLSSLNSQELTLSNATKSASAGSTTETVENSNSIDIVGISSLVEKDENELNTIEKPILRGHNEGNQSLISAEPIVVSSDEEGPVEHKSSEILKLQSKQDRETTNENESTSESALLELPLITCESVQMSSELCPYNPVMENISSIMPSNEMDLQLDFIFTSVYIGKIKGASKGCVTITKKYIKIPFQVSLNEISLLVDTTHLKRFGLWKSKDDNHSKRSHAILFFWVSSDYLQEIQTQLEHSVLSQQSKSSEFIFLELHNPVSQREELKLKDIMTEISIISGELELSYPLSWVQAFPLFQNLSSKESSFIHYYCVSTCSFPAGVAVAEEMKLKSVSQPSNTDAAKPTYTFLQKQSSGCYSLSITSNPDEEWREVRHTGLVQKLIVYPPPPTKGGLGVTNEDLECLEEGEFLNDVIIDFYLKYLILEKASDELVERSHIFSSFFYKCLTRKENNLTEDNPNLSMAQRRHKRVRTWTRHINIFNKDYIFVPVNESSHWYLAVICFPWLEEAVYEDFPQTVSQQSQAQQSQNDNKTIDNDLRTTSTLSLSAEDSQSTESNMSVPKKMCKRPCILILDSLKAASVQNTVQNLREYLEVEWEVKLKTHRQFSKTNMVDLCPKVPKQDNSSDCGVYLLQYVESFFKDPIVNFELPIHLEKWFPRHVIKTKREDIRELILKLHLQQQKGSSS

Candida albicans [10] = experiment: growth inhibition of resistant C. albicans, dose response, CaCi-8 strain, fluconazole, dry powder, set 4 (AID 488950); assay type: functional, organism-based
Candida albicans [11] = experiment: fluconazole resistance reversal in C. albicans, dose response, CaCi-2 strain, Alamar Blue, dry powder, set 4 (AID 488943); assay type: functional, organism-based
NIH3T3 = experiment: mammalian cell toxicity in NIH-3T3 fibroblasts, dose response, cytotoxicity control for antifungal resistance reversal project, Alamar Blue, dry powder, set 2 (AID 488911); assay type: functional, cell-based; conditions: Mus musculus
Candida albicans [12] = experiment: growth inhibition of azole-resistant C. albicans, dose response, CaCi-8 strain, Alamar Blue, dry powder, set 2 (AID 488909); assay type: functional, organism-based
Candida albicans [13] = experiment: Candida albicans growth inhibition, agent alone, dose response, counter-screen for reversing antifungal drug resistance, CaCi-2 strain, no fluconazole, dry powder, set 4 (AID 488932); assay type: functional, organism-based

Chain of Mitogen-activated protein kinase 10 (P53779 whole entry): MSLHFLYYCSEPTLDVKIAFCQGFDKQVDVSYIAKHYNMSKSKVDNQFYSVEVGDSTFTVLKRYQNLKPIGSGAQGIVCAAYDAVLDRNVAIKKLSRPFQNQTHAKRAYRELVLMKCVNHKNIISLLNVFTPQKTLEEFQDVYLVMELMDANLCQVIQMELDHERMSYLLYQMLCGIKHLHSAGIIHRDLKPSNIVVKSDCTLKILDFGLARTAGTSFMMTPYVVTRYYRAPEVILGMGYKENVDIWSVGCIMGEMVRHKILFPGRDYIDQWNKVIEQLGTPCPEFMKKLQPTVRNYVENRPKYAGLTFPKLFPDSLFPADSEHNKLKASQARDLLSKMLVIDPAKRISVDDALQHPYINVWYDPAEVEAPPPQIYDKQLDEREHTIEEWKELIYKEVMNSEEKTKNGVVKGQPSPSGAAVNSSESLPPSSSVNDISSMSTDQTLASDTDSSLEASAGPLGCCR

With `COc1cccc(C(=O)c2sc(NC(C)C)nc2N)c1` the IC50 [1] was > 31 µM (not active), the AC50 [2] was 7.12 µM (active) and the AC50 [3] was 0.288 µM (active). The AC50 [4] was 0.252 µM (active), the AC50 [5] was 1.11 µM (active) and the IC50 [6] was 0.0182 µM (active).
`N#Cc1cccc(-c2nc(/C=C/c3ccc(F)cc3)no2)c1` was tested, and the IC50 [7] was > 99 µM (inactive), the IC50 (Caspase-3) was > 99 µM (inactive) and the IC50 [8] was > 99 µM (inactive). The IC50 [9] was > 99 µM (inactive).
For `O=C(c1ccc(Cl)cc1)N1CCN(c2cccnc2)CC1`, the AC50 (Candida albicans [10]) was 20.4 µM (active), the AC50 (Candida albicans [11]) was 25 µM (active) and the AC50 (NIH3T3) was 190 µM (active). For the same compound, the AC50 (Candida albicans [12]) was 30.5 µM (active) and the AC50 (Candida albicans [13]) was 43.5 µM (active).
